Common to all, as to design: key: −: no saccharide-transferred product was detected through transfer reaction to acceptor; ∀: a saccharide-transferred product was detected in an amount less than one percent through transfer reaction to acceptor; +: a saccharide-transferred product was detected in an amount over one percent but less than ten percent through transfer reaction to acceptor; ++: a saccharide-transferred product was detected in an amount over ten percent through transfer reaction to acceptor

Assay [1] concerns α-isomaltosylglucosaccharide-forming enzyme. The assay is described as follows: Transfer-acceptor specificity, Enzyme of Strain A19. The assay is classed as biochemical, Arthrobacter globiformis A19. The settings on record: acceptor 1.6%, PINE-DEX #100 donor 4%, one unit/g donor, 30° C., pH 8.4, 24 hours. The method, then:
(§1) Using different saccharides, it was tested whether the saccharides were used as transferring-acceptors for the α-isomaltosylglucosaccharide-forming enzyme of the present invention. A solution of D-glucose, D-xylose, L-xylose, D-galactose, D-fructose, D-mannose, D-arabinose, D-fucose, D-psicose, L-sorbose, L-rhamnose, methyl-α-glucopyranoside, methyl-β-glucopyranoside, N-acetyl-glucosamine, sorbitol, trehalose, isomaltose, isomaltotriose, cellobiose, gentibiose, glycerol, maltitol, lactose, sucrose, α-cyclodextrin, β-cyclodextrin, γ-cyclodextrin, or L-ascorbic acid was prepared.
(§2) To each solution with a saccharide concentration of 1.6% was added “PINE-DEX #100”, a partial starch hydrolysate, as a saccharide donor, to give a concentration of 4%, and admixed with one unit/g saccharide donor, d.s.b., of either of purified specimens of α-isomaltosylglucosaccharide-forming enzyme from Bacillus globisporus C9 obtained by the method in Experiment 4-2, Bacillus globisporus C11 obtained by the method in Experiment 7-2, Bacillus globisporus N75 obtained by the method in Experiment 11-2, or Arthrobacter globiformis A19 obtained by the method in Experiment 15-2, and incubated at 30° C. and pH 6.0, except that pH 8.4 was used for the enzyme from Arthrobacter globiformis A19, for 24 hours. The reaction mixtures of the post-enzymatic reactions were analyzed on gas chromatography (abbreviated as “GLC” hereinafter) for monosaccharides and disaccharides as acceptors, and on HPLC for trisaccharides as acceptors to confirm whether these saccharides could be used as their transfer acceptors. In the case of performing GLC, the following apparatuses and conditions are used: GLC apparatus, “GC-16A” commercialized by Shimadzu Corporation, Tokyo, Japan; column, a stainless-steel column, 3 mm in diameter and 2 m in length, packed with 2% “SILICONE OV-17/[…]”, commercialized by GL Sciences Inc., Tokyo, Japan; carrier gas, nitrogen gas at a flow rate of 40 ml/min under temperature conditions of increasing from 160° C. to 320° C. at an increasing temperature rate of 7.5° C./min; and detection, a hydrogen flame ionization detector. In the case of HPLC analysis, the apparatuses and conditions used are: HPLC apparatus, “CCPD” commercialized by Tosoh Corporation, Tokyo, Japan; column, “ODS-AQ-303” commercialized by YMC Co., Ltd., Tokyo, Japan; eluent, water at a flow rate of 0.5 ml/min; and detection, a differential refractometer.

For assay [2] the test system is unchanged. The assay is described as follows: Transfer-acceptor specificity, Enzyme of Strain C9. The assay is classed as biochemical, Bacillus globisporus C9. The settings on record: acceptor 1.6%, PINE-DEX #100 donor 4%, one unit/g donor, 30° C., pH 6.0, 24 hours. The method, then:
as §1, §2

Assay [3] shares this test system. The experiment in a line: Transfer-acceptor specificity, Enzyme of Strain C11. The settings on record: acceptor 1.6%, PINE-DEX #100 donor 4%, one unit/g donor, 30° C., pH 6.0, 24 hours. The assay is classed as biochemical, Bacillus globisporus C11. Here is the method: as §1, §2
Assay [4] shares this test system. The assay is described as follows: Transfer-acceptor specificity, Enzyme of Strain N75. The settings on record: acceptor 1.6%, PINE-DEX #100 donor 4%, one unit/g donor, 30° C., pH 6.0, 24 hours. The assay is classed as biochemical, Bacillus globisporus N75. The method, then:
as §1, §2

Molecules are shown by their SMILES.

As for `C[C@H](O)[C@H](O)[C@@H](O)[C@@H](O)C=O` [L-Rhamnose], the “Product of transferring reaction, Enzyme of Stain A19” value (shortened to “Product … of Stain A19”) in assay [1] is recorded as “−”. For the same compound, the “Product of transferring reaction, Enzyme of Strain C9” value (from here on “Product … of Strain C9”) in assay [2] is recorded as “−”. Moreover, the “Product of transferring reaction, Enzyme of Strain C11” value (“Product … of Strain C11” for short) in assay [3] is on record as “−”. Besides, in assay [4], the “Product of transferring reaction, Enzyme of Strain N75” value (from here on “Product … of Strain N75”) is “−”.
For `O=C(CO)[C@@H](O)[C@H](O)[C@@H](O)CO` [L-Sorbose], the “Product … of Stain A19” value in assay [1] is “+ (a saccharide-transferred product was detected in an amount over one percent but less than ten percent through transfer reaction to acceptor)”. In addition, in assay [2], the “Product … of Strain C9” value is “+ (a saccharide-transferred product was detected in an amount over one percent but less than ten percent through transfer reaction to acceptor)”. In addition, the “Product … of Strain C11” value in assay [3] is reported as “+ (a saccharide-transferred product was detected in an amount over one percent but less than ten percent through transfer reaction to acceptor)”. The “Product … of Strain N75” value in assay [4] is listed as “+ (a saccharide-transferred product was detected in an amount over one percent but less than ten percent through transfer reaction to acceptor)”.
For the compound `O=C[C@@H](O)[C@H](O)[C@@H](O)CO` [L-Xylose], the “Product … of Stain A19” value in assay [1] is “+ (a saccharide-transferred product was detected in an amount over one percent but less than ten percent through transfer reaction to acceptor)”. For the same compound, the “Product … of Strain C9” value in assay [2] is reported as “++ (a saccharide-transferred product was detected in an amount over ten percent through transfer reaction to acceptor)”. Also, the “Product … of Strain C11” value in assay [3] is “++ (a saccharide-transferred product was detected in an amount over ten percent through transfer reaction to acceptor)”. In assay [4], the “Product … of Strain N75” value is given as “++ (a saccharide-transferred product was detected in an amount over ten percent through transfer reaction to acceptor)”.
Turning to `CO[C@H]1O[C@H](CO)[C@@H](O)[C@H](O)[C@H]1O` [Methyl-α-glucopyranoside], the “Product … of Stain A19” value in assay [1] is given as “++ (a saccharide-transferred product was detected in an amount over ten percent through transfer reaction to acceptor)”. In addition, the “Product … of Strain C9” value in assay [2] is given as “++ (a saccharide-transferred product was detected in an amount over ten percent through transfer reaction to acceptor)”. In addition, the “Product … of Strain C11” value in assay [3] is listed as “++ (a saccharide-transferred product was detected in an amount over ten percent through transfer reaction to acceptor)”. In assay [4], the “Product … of Strain N75” value is reported as “++ (a saccharide-transferred product was detected in an amount over ten percent through transfer reaction to acceptor)”.
For the compound `CO[C@@H]1O[C@H](CO)[C@@H](O)[C@H](O)[C@H]1O` [Methyl-β-glucopyranoside], in assay [1], the “Product … of Stain A19” value is “++ (a saccharide-transferred product was detected in an amount over ten percent through transfer reaction to acceptor)”. The “Product … of Strain C9” value in assay [2] is given as “++ (a saccharide-transferred product was detected in an amount over ten percent through transfer reaction to acceptor)”. In addition, the “Product … of Strain C11” value in assay [3] was “++ (a saccharide-transferred product was detected in an amount over ten percent through transfer reaction to acceptor)”. Moreover, the “Product … of Strain N75” value in assay [4] was “++ (a saccharide-transferred product was detected in an amount over ten percent through transfer reaction to acceptor)”.
As to `CC(=O)N[C@H]1C(O)O[C@H](CO)[C@@H](O)[C@@H]1O` (stereo partly shown) [N-Acetyl-glucosamine], the “Product … of Stain A19” value in assay [1] was “−”. Further, the “Product … of Strain C9” value in assay [2] is given as “+ (a saccharide-transferred product was detected in an amount over one percent but less than ten percent through transfer reaction to acceptor)”. Further, the “Product … of Strain C11” value in assay [3] is recorded as “+ (a saccharide-transferred product was detected in an amount over one percent but less than ten percent through transfer reaction to acceptor)”. The “Product … of Strain N75” value in assay [4] was “+ (a saccharide-transferred product was detected in an amount over one percent but less than ten percent through transfer reaction to acceptor)”.
Consider `OC[C@@H](O)[C@@H](O)[C@H](O)[C@@H](O)CO` [Sorbitol], for which the “Product … of Stain A19” value in assay [1] is given as “−”. Besides, in assay [2], the “Product … of Strain C9” value is listed as “−”. Moreover, in assay [3], the “Product … of Strain C11” value is on record as “−”. For the same compound, the “Product … of Strain N75” value in assay [4] was “−”.
`OC[C@H]1O[C@@H]2O[C@H]3[C@H](O)[C@@H](O)[C@@H](O[C@H]4[C@H](O)[C@@H](O)[C@@H](O[C@H]5[C@H](O)[C@@H](O)[C@@H](O[C@H]6[C@H](O)[C@@H](O)[C@@H](O[C@H]7[C@H](O)[C@@H](O)[C@@H](O[C@H]1[C@H](O)[C@H]2O)O[C@@H]7CO)O[C@@H]6CO)O[C@@H]5CO)O[C@@H]4CO)O[C@@H]3CO` [α-Cyclodextrin]: the “Product … of Stain A19” value in assay [1] was “−”. For the same compound, in assay [2], the “Product … of Strain C9” value was “−”. The “Product … of Strain C11” value in assay [3] was “−”. Moreover, in assay [4], the “Product … of Strain N75” value was “−”.
In the case of `OC[C@H]1O[C@@H]2O[C@H]3[C@H](O)[C@@H](O)[C@@H](O[C@H]4[C@H](O)[C@@H](O)[C@@H](O[C@H]5[C@H](O)[C@@H](O)[C@@H](O[C@H]6[C@H](O)[C@@H](O)[C@@H](O[C@H]7[C@H](O)[C@@H](O)[C@@H](O[C@H]8[C@H](O)[C@@H](O)[C@@H](O[C@H]1[C@H](O)[C@H]2O)O[C@@H]8CO)O[C@@H]7CO)O[C@@H]6CO)O[C@@H]5CO)O[C@@H]4CO)O[C@@H]3CO` [β-Cyclodextrin], in assay [1], the “Product … of Stain A19” value is listed as “−”. In addition, the “Product … of Strain C9” value in assay [2] is “−”. In addition, in assay [3], the “Product … of Strain C11” value was “−”. The “Product … of Strain N75” value in assay [4] is on record as “−”.
As for `OC[C@H]1O[C@@H]2O[C@H]3[C@H](O)[C@@H](O)[C@@H](O[C@H]4[C@H](O)[C@@H](O)[C@@H](O[C@H]5[C@H](O)[C@@H](O)[C@@H](O[C@H]6[C@H](O)[C@@H](O)[C@@H](O[C@H]7[C@H](O)[C@@H](O)[C@@H](O[C@H]8[C@H](O)[C@@H](O)[C@@H](O[C@H]9[C@H](O)[C@@H](O)[C@@H](O[C@H]1[C@H](O)[C@H]2O)O[C@@H]9CO)O[C@@H]8CO)O[C@@H]7CO)O[C@@H]6CO)O[C@@H]5CO)O[C@@H]4CO)O[C@@H]3CO` [γ-Cyclodextrin], the “Product … of Stain A19” value in assay [1] was “−”. Also, in assay [2], the “Product … of Strain C9” value is reported as “−”. Further, the “Product … of Strain C11” value in assay [3] is reported as “−”. Further, in assay [4], the “Product … of Strain N75” value is “−”.

Source of the values: US7811797B2, “α-isomaltosylglucosaccharide-forming enzyme, process and uses of the same” (Kabushiki Kaisha Hayashibara Seibutsu Kagaku Kenkyujo, priority 2000, dated 2010).
